The text below walks through data of patent US7737251B2, “Long lasting glucagon-like peptide 2 (GLP-2) for the treatment of gastrointestinal diseases and disorders” (ConjuChem Biotechnologies Inc., priority 2001, dated 2010).

Ends that are not written are not given here. * marks the point of attachment. Propanoyl(3-maleimido) = O=C1C=CC(=O)N1CCC(=O)*

Common to all, as to format: in vivo
A short description of data set [1]: Pharmacokinetic profiles in rats (plasma radioimmunoassay). The note with it: male, rat, single 500 nmol/kg, Sprague-Dawley rats; for half-life: harmonic mean; for Vd: read-out: Vss; for Tmax: expressed as media; for bioavailability: read-out: F (absolute bioavailability). How it is done: The pharmacokinetic profiles of the compounds of Examples 5 and 8 were studied in normal rats following a single intravenous or subcutaneous injection. Plasma concentrations were determined by radioimmunoassay with a commercial antibody anti-human GLP-2.
Test articles were dissolved in 0.083M sodium phosphate buffer, pH 6.8 and administered to eight to eleven-week-old male Sprague-Dawley rats by a single intravenous or subcutaneous injection at a dose level of 500 nmol/kg. Serial blood samples (I50-200 μl) were collected into tubes containing EDTA and DPP-IV inhibitor at the following time-points: pre-dose, 5 and 30 min., and 1, 2, 4, 8, 24, 48, 72 and 96 hours post-test agent administration. Whole blood was centrifuged and subsequent plasma samples were recovered and stored at −80° C. until analysis.
The plasma concentrations of the compounds of Examples 5 and 8 were determined by radioimmunoassay using a rabbit polyclonal antibody anti-human GLP-2 (Peninsula Laboratories, RGG7167) and iodinated human GLP-2 as tracer.
Descriptive pharmacokinetic parameters were determined by standard model-independent methods (Gibaldi and Perrier, 1982) based on the analysis of plasma concentration-time data. Pharmacokinetic analyses were performed using macros written for Microsoft Excel 97. The following parameters were calculated: • Cmax is the maximum plasma concentration; • Tmax is the time when Cmax is observed; • T1/2 is the terminal half-life; • AUC(0-inf) is the area under the plasma concentration-time curve from time zero to time infinity; • F is the absolute bioavailability, • CL is the systemic clearance; • MRT is mean residence time; and • Vss is the steady-state volume of distribution.

In a further data set the test system is CD-1 mice. The data set is described as follows: Dose-response with selected Gly2-GLP-2 analogues (small and large intestine weight). The note with it: 5, 25 or 50 μg/dose sc twice daily for 10 days, female CD-1 mice. Here is the method:
Six-week-old female CD-1 mice (20-25 g) were treated twice daily for 10 consecutive days with 5, 25 or 50 μg/dose of the compounds of Examples 5, 7 and 8. The compounds were dissolved in 0.083M sodium phosphate buffer, pH 6.8 and administered via subcutaneous injections in the dorsal-lateral area of the lumbar region. Control animals received 0.25 ml/dose of sodium phosphate buffer.
On day 11, fed mice were anesthetized with Halothane™ and small intestine, large intestine and stomach were collected from each mouse after laparatomy. The tissues were then cleaned and weighed.

The subject of the next data set is normal mice. Put plainly: Intestinotrophic activity in normal mice model (small intestine weight). The note with it: 5 μg/dose sc twice daily for 10 days, male CD-1 mice; for small intestine weight: vs saline control. How it is done:
The intestinotrophic activity of the compounds of Examples 1-8 has been evaluated in a normal mice model. Five-week-old male CD-1 mice (20-25 g) were treated twice daily for 10 consecutive days with 5 μg/dose of each compound dissolved in 0.9% NaCl aqueous solution. The compounds were administered via subcutaneous injections in the dorsal-lateral area of the lumbar region. Control animals received 0.25 ml/dose of 0.9% NaCl.
On day 11, mice were fasted for 4 hours and anesthetized with CO2 Small intestines were removed, cleaned and weighed.

In the next data set the target is T1, rat albumin (Rattus norvegicus, UniProt P02770).
T1 construct: from tissue; host or cells: rat plasma (Sprague-Dawley rats, in vivo conjugation after iv/sc dosing)
T1 sequence (P02770 25-608): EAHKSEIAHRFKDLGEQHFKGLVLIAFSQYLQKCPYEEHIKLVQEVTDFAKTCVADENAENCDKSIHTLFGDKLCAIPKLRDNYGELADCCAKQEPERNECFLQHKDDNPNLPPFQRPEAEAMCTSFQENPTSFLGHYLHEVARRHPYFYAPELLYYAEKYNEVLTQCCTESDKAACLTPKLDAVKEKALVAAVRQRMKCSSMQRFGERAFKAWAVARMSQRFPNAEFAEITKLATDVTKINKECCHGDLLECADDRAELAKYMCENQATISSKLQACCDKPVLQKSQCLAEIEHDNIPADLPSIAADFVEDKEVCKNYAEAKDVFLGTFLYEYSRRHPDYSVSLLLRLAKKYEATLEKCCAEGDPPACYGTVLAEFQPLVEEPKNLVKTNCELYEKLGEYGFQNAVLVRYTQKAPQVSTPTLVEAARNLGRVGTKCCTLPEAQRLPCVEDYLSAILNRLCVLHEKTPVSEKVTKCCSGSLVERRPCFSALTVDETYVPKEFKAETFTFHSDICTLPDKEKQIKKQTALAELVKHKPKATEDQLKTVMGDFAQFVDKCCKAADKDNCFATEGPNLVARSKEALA
Put plainly: Immunoblotting of rat plasma for conjugation to plasma proteins. Here is the method:
Plasma samples obtained from the rat pharmacokinetic study were analyzed by immunoblotting. Plasma proteins were separated under non-reducing conditions using sodium-dodecyl-sulfate polyacrylamide gel electrophoresis (SDS-PAGE) according to Laemmli (1970). Plasma samples were first diluted 1:10 with distilled water and 20 μl was mixed with 10 μl of 3× Laemmli buffer (30 mM TrisCl, 3 mM EDTA, 15% SDS, pH 6.8) and 2 μl of bromophenol blue solution (0.1% bromophenol blue, 50% glycerol). Mixtures were placed in a boiling water bath for 3 min and loaded on gel. Proteins were first concentrated in a 3% stacking gel and then migrated through 8% separating gel using a mini-gel system with 10-well combs (1.5×4.8 mm). Electrophoresis was run under constant current at 15 mA/gel to concentrate proteins in stacking gel and at 20 mA/gel in separating gel for approximately 1.5 h.
Proteins were subsequently transferred onto a nitrocellulose membrane using a semi-dry transfer apparatus, for 1 hour at 100 mA/gel. Transfer efficacy was checked by reversible staining of the membrane with 1% red Ponceau™ solution.
Membranes were saturated overnight at 4° C. with Tris Buffered Saline (TBS) containing 5% low fat milk. […]
In general terms: In western blotting, separated proteins are transferred to a membrane and probed.

In data set [1] (IV), `CC[C@H](C)[C@H](NC(=O)[C@H](Cc1ccccc1)NC(=O)[C@H](CC(=O)O)NC(=O)[C@H](CCCNC(=N)N)NC(=O)[C@H](C)NC(=O)[C@H](C)NC(=O)[C@H](CC(C)C)NC(=O)[C@H](CC(N)=O)NC(=O)[C@H](CC(=O)O)NC(=O)[C@H](CC(C)C)NC(=O)[C@@H](NC(=O)[C@@H](NC(=O)[C@H](CC(N)=O)NC(=O)[C@H](CCSC)NC(=O)[C@H](CCC(=O)O)NC(=O)[C@H](CC(=O)O)NC(=O)[C@H](CO)NC(=O)[C@H](Cc1ccccc1)NC(=O)[C@H](CO)NC(=O)CNC(=O)[C@H](CC(=O)O)NC(=O)CNC(=O)[C@@H](N)Cc1c[nH]cn1)[C@@H](C)O)[C@@H](C)CC)C(=O)N[C@@H](CC(N)=O)C(=O)N[C@@H](Cc1c[nH]c2ccccc12)C(=O)N[C@@H](CC(C)C)C(=O)N[C@H](C(=O)N[C@@H](CCC(N)=O)C(=O)N[C@H](C(=O)N[C@@H](CCCCN)C(=O)N[C@H](C(=O)N[C@H](C(=O)N[C@@H](CC(=O)O)C(N)=O)[C@@H](C)O)[C@@H](C)CC)[C@@H](C)O)[C@@H](C)CC` [Example 5] gave an AUC(0-inf) of 0.626 µM·h, a Cmax of 1560 nM, a mean residence time MRT of 0.3 h and a clearance of 13.9 mL/min/kg. Moreover, in data set [1] (IV), the half-life is 1.5 h and the Vd worked out at 0.25 L/kg. For the same compound, in data set [1] (SC), the AUC(0-inf) was 0.205 µM·h, the peak level (Cmax) was 159 nM, the Tmax is 0.5 h and the half-life is 0.9 h. Besides, the bioavailability in data set [1] (SC) is 32.8%. Further, in the data set on CD-1 mice, the “dose-response, large intestine weight” value is listed as “no dose-response” and the “dose-response, small intestine weight” value is on record as “No dose-response”. In the data set with normal mice, the “intestinotrophic effects compared to the native GLP-2 peptides of Examples 1 and 3” value is on record as “more pronounced intestinotrophic effects”; the small intestine weight entry was “Significant increases”.

Regarding `CC[C@H](C)[C@H](NC(=O)[C@H](Cc1ccccc1)NC(=O)[C@H](CC(=O)O)NC(=O)[C@H](CCCNC(=N)N)NC(=O)[C@H](C)NC(=O)[C@H](C)NC(=O)[C@H](CC(C)C)NC(=O)[C@H](CC(N)=O)NC(=O)[C@H](CC(=O)O)NC(=O)[C@H](CC(C)C)NC(=O)[C@@H](NC(=O)[C@@H](NC(=O)[C@H](CC(N)=O)NC(=O)[C@H](CCSC)NC(=O)[C@H](CCC(=O)O)NC(=O)[C@H](CC(=O)O)NC(=O)[C@H](CO)NC(=O)[C@H](Cc1ccccc1)NC(=O)[C@H](CO)NC(=O)CNC(=O)[C@H](CC(=O)O)NC(=O)CNC(=O)[C@@H](N)Cc1c[nH]cn1)[C@@H](C)O)[C@@H](C)CC)C(=O)N[C@@H](CC(N)=O)C(=O)N[C@@H](Cc1c[nH]c2ccccc12)C(=O)N[C@@H](CC(C)C)C(=O)N[C@H](C(=O)N[C@@H](CCC(N)=O)C(=O)N[C@H](C(=O)N[C@@H](CCCCN)C(=O)N[C@H](C(=O)N[C@H](C(=O)N[C@@H](CC(=O)O)C(=O)N[C@@H](CCCCNC(=O)CCN1C(=O)C=CC1=O)C(N)=O)[C@@H](C)O)[C@@H](C)CC)[C@@H](C)O)[C@@H](C)CC` [Example 8], the “conjugation to rat albumin” value on rat albumin (post-iv administration, anti-GLP-2 immunoblot) was “conjugates efficiently to rat albumin”. For the same compound, the signal on albumin entry at rat albumin (post-sc administration, anti-GLP-2 immunoblot (not shown)) was “weak signal”. In data set [1] (IV), the AUC(0-inf) is 89.4 µM·h, the highest level (Cmax) was 10100 nM, the MRT came to 16.9 h and the clearance came to 0.0942 mL/min/kg. In data set [1] (IV), the half-life was 16.2 h and the Vd stood at 0.0953 L/kg. In addition, in data set [1] (SC), the AUC(0-inf) was 13.5 µM·h, the maximum concentration (Cmax) is 651 nM, the Tmax amounted to 0.5 h and the half-life is 23.8 h. Moreover, in data set [1] (SC), the bioavailability was determined as 15.2%. Also, in the data set on CD-1 mice, the “dose-response, large intestine weight” value is “possible dose-response” and the “dose-response, small intestine weight” value is “possible dose-response”. In the data set with normal mice, the “intestinotrophic effects compared to the native GLP-2 peptides of Examples 1 and 3” value is reported as “more pronounced intestinotrophic effects”; the small intestine weight entry was “Significant increases”.

With “His-Ala-Asp-Gly-Ser-Phe-Ser-Asp-Glu-Met-Asn-Thr-Ile-Leu-Asp-Asn-Leu-Ala-Ala-Arg-Asp-Phe -Ile-Asn-Trp-Leu-Ile-Gln-Thr-Lys-Ile-Thr-Asp-CONH2 (HADGSFSDEMNTILDNLAARDFINWLIQTKITD-NH2) [Example 1]”, in the data set with normal mice, the small intestine weight result is recorded as “Significant increases”.

As to “His-Ala-Asp-Gly-Ser-Phe-Ser-Asp-Glu-Met-Asn-Thr-Ile-Leu-Asp-Asn-Leu-Ala-Ala-Arg-Asp-Phe -Ile-Asn-Trp-Leu-Ile-Gln-Thr-Lys-Ile-Thr-Asp-Lys(MPA)-CONH2 (HADGSFSDEMNTILDNLAARDFINWLIQTKITDK; MPA; C-terminal amide; analog of GLP-2; VARIANT (34)...(34): MPA attached to the Lys residue; AMIDATION (34)...(34)) [Example 3]”, in the data set on normal mice, the small intestine weight entry is listed as “Significant increases”.

As to “His-Gly-Asp-Gly-Ser-Phe-Ser-Asp-Glu-Met-Asn-Thr-Ile-Leu-Asp-Lys(MPA)-Leu-Ala-Ala-Arg -Asp-Phe-Ile-Asn-Trp-Leu-Ile-Gln-Thr-Lys-Ile-Thr-Asp-CONH2 (HGDGSFSDEMNTILDK(Propanoyl(3-maleimido))LAARDFINWLIQTKITD-NH2; N-terminus assumed; SMILES CC[C@H](C)[C@H](NC(=O)[C@H](Cc1ccccc1)NC(=O)[C@H](CC(=O)O)NC(=O)[C@H](CCCNC(=N)N)NC(=O)[C@H](C)NC(=O)[C@H](C)NC(=O)[C@H](CC(C)C)NC(=O)[C@H](CCCCNC(=O)CCN1C(=O)C=CC1=O)NC(=O)[C@H](CC(=O)O)NC(=O)[C@H](CC(C)C)NC(=O)[C@@H](NC(=O)[C@@H](NC(=O)[C@H](CC(N)=O)NC(=O)[C@H](CCSC)NC(=O)[C@H](CCC(=O)O)NC(=O)[C@H](CC(=O)O)NC(=O)[C@H](CO)NC(=O)[C@H](Cc1ccccc1)NC(=O)[C@H](CO)NC(=O)CNC(=O)[C@H](CC(=O)O)NC(=O)CNC(=O)[C@@H](N)Cc1c[nH]cn1)[C@@H](C)O)[C@@H](C)CC)C(=O)N[C@@H](CC(N)=O)C(=O)N[C@@H](Cc1c[nH]c2ccccc12)C(=O)N[C@@H](CC(C)C)C(=O)N[C@H](C(=O)N[C@@H](CCC(N)=O)C(=O)N[C@H](C(=O)N[C@@H](CCCCN)C(=O)N[C@H](C(=O)N[C@H](C(=O)N[C@@H](CC(=O)O)C(N)=O)[C@@H](C)O)[C@@H](C)CC)[C@@H](C)O)[C@@H](C)CC) [Example 7]”, in the data set on CD-1 mice, the “dose-response, large intestine weight” value is on record as “no dose-response” and the “dose-response, small intestine weight” value is recorded as “No dose-response”. Also, in the data set on normal mice, the “intestinotrophic effects compared to the native GLP-2 peptides of Examples 1 and 3” value was “more pronounced intestinotrophic effects”; the small intestine weight result was “Significant increases”.

As usually defined, the AUC(0-inf) is the area under the concentration-time curve extrapolated to infinity. A word on the Cmax: it is the maximum level reached in the sampled fluid or tissue. As usually defined, the MRT is the average time that molecules of a dose stay in the body. Broadly, the clearance is a measure of how efficiently the substance is removed, as volume per time. Low readings indicate a low capacity for elimination, high ones a high capacity for elimination. Broadly, the half-life is how long it takes for the measured level to halve. By Tmax is commonly meant the time at which the peak concentration occurs. One may read the bioavailability as the share of a dose that reaches the circulation, judged against a reference dose that is usually intravenous.
